Data: patent US20050282743A1, “Molecular interactions in cells” (Arbor Vita Corporation, priority 2001, published 2005)
Ends that are not written are not given here. Peptide text beside a SMILES is read from it. * marks the point of attachment. Biotin = O=C1N[C@H]2[C@H](CS[C@H]2CCCCC(=O)*)N1

Key:
Assay in all cases: G' assay (10 uM PL peptide), results of TABLE 7 and TABLE 12
Format in all cases: binding
[1] = biological target: T1, PDZ protein (GST-PDZ fusion) (Homo sapiens, UniProt Q6P0Q8)
T1 construct: made in house; host or cells: E. coli (DH5alpha, BL21 or JM109)
T1 sequence (Q6P0Q8 whole entry, the tested form may be a part): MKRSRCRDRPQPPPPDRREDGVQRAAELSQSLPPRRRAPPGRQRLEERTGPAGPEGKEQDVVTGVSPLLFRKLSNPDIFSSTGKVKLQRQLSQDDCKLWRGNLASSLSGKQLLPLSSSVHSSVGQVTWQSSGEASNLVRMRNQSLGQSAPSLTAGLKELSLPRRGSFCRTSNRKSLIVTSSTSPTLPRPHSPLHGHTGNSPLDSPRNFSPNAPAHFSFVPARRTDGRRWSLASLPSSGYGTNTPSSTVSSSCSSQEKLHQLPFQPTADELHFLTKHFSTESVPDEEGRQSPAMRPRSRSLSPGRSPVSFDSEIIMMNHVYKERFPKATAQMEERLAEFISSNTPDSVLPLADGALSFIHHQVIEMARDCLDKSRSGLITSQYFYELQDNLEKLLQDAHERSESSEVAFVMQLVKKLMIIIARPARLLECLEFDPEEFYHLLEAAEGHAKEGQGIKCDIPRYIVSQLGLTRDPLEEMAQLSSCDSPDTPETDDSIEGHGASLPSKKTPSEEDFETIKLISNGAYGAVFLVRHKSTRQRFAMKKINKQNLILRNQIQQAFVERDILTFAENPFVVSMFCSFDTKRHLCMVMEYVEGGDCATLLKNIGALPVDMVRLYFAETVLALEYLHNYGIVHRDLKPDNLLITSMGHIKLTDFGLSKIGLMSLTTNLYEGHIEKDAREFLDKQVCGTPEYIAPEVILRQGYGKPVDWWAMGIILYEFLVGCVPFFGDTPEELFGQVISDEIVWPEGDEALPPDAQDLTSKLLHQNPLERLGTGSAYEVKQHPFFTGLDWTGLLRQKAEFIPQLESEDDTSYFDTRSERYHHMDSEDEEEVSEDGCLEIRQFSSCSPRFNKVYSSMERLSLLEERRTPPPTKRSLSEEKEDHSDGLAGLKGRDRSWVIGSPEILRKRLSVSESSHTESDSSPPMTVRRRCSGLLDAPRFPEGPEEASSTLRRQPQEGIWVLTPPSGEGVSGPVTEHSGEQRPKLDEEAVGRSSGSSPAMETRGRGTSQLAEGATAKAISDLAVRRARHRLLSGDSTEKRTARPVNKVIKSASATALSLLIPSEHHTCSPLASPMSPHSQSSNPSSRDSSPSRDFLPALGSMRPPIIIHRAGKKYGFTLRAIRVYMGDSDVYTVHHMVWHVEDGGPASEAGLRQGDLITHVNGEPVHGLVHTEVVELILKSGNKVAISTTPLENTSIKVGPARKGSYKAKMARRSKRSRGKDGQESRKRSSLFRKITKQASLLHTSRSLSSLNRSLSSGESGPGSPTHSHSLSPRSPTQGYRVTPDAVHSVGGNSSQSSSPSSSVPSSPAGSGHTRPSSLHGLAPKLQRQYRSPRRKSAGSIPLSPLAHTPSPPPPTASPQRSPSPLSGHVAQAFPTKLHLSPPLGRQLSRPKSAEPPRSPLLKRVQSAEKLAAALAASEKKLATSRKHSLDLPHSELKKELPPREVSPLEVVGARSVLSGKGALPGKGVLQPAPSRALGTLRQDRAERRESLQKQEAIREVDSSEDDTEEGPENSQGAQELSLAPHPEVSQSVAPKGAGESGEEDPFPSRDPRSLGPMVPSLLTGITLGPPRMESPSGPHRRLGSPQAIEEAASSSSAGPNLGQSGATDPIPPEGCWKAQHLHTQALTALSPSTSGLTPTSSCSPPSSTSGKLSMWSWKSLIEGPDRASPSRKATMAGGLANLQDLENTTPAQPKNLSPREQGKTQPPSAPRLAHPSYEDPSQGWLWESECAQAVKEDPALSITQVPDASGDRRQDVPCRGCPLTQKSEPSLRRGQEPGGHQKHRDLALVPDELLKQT
Method in brief: (§1)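 Biotinylated PL peptides at 10 uM (vs 20 uM in G^0 assay) bound to GST-PDZ fusions; PDZ protein at 5 ug/ml unless another concentration listed. Bound peptide read as A450 nm, classified 0–5 (0 = A450 0; 5 = A450 >4 repeated).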

[2] = biological target: T2, PDZ protein (GST-PDZ fusion) (Homo sapiens, UniProt O75970)
T2 construct: made in house; host or cells: E. coli (DH5alpha, BL21 or JM109)
T2 sequence (O75970 whole entry, the tested form may be a part): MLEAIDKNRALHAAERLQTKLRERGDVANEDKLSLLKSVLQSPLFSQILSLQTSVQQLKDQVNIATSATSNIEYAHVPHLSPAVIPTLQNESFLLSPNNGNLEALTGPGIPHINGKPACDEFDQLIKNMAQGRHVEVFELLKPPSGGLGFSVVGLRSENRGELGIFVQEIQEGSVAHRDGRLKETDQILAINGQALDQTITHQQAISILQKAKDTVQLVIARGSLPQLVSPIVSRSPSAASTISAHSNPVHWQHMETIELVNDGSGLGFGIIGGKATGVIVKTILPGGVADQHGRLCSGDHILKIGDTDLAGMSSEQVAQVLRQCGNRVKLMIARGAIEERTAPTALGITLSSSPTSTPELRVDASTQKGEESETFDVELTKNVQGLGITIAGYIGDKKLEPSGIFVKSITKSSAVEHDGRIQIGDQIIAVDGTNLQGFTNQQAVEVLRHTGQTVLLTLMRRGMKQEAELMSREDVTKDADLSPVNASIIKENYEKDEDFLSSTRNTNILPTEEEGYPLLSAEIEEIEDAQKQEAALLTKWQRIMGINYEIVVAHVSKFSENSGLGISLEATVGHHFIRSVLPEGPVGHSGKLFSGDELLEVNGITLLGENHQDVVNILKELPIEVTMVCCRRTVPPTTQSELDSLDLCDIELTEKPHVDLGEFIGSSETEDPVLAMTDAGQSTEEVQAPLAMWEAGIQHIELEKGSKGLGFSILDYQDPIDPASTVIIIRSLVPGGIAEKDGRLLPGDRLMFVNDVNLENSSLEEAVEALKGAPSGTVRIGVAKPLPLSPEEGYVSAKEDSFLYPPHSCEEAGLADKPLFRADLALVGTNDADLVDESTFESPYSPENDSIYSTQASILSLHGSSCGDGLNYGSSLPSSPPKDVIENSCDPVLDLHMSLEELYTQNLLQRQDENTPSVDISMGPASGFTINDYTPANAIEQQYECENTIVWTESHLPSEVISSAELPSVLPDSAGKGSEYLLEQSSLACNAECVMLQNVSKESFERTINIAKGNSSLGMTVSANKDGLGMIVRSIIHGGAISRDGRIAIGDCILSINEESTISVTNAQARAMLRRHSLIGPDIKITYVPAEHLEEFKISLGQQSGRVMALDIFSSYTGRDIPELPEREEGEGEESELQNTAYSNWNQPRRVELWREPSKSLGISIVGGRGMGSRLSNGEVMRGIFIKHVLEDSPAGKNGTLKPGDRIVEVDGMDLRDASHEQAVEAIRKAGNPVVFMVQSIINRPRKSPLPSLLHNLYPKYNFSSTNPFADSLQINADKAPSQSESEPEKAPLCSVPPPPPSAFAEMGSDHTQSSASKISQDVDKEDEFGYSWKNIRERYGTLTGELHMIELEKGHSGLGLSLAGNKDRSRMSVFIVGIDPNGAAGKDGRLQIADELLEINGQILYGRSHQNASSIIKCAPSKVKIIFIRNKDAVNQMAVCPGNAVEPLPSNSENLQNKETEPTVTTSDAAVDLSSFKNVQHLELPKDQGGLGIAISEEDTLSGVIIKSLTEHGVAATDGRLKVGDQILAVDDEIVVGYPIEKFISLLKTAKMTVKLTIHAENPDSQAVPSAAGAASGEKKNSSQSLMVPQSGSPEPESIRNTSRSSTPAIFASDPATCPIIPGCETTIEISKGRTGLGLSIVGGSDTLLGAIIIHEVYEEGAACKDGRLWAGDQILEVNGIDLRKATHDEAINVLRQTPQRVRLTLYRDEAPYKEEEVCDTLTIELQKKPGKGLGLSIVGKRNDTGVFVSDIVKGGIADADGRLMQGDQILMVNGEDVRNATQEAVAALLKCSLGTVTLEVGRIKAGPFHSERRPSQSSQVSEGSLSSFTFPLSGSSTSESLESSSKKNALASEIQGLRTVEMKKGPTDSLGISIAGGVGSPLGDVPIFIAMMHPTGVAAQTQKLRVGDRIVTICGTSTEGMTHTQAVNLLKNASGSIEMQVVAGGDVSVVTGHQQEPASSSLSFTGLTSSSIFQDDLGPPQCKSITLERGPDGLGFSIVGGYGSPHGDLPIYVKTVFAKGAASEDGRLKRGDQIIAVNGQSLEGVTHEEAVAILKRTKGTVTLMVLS
Method in brief: as §1

[3] = biological target: T3, PDZ protein (GST-PDZ fusion) (Homo sapiens, UniProt Q5TCQ9)
T3 construct: made in house; host or cells: E. coli (DH5alpha, BL21 or JM109)
T3 sequence (Q5TCQ9 1-1481): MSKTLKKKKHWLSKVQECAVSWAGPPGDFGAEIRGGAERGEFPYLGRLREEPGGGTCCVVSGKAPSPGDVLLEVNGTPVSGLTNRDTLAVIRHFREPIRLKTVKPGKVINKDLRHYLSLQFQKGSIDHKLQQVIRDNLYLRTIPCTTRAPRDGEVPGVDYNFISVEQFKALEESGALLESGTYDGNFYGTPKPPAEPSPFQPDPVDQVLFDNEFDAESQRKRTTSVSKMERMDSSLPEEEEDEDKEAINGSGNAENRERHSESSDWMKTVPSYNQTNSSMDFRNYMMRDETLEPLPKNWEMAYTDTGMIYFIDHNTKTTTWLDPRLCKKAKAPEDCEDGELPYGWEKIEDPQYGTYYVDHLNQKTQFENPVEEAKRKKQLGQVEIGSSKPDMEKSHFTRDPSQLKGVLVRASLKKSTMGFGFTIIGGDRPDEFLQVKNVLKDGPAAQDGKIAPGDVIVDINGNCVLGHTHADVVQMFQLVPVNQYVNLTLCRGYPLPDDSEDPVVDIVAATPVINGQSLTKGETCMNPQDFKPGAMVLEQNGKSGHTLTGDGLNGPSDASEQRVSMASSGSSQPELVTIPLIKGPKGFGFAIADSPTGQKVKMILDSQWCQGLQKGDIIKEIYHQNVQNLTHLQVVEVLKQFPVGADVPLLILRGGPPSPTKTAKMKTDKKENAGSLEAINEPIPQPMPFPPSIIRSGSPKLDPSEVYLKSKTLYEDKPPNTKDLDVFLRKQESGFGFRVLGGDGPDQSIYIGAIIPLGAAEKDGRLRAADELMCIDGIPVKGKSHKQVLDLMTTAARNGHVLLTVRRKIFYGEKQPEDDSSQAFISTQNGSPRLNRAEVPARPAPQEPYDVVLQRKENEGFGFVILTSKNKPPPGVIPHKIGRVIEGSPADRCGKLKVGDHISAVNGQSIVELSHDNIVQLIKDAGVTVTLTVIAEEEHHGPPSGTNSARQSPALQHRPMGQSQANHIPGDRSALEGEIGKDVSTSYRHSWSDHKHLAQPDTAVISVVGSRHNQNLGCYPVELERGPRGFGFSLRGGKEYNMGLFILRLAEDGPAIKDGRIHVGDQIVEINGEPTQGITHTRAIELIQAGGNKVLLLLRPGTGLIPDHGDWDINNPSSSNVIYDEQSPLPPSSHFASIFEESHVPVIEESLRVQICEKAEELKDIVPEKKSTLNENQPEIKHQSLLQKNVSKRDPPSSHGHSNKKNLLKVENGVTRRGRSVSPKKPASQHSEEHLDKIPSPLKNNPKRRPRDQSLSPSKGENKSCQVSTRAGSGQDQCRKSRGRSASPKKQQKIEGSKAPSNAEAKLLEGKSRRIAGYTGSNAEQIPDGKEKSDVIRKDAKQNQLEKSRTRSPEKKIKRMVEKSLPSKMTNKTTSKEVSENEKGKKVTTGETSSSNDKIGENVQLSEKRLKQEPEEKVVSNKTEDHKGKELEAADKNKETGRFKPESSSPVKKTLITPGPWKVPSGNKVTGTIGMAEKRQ
Method in brief: as §1

[4] = PDZ KIAA807, PDZ Domain not given

Row | Compound | Classification ([1]; PDZ KIAA0807(S), PDZ Domain 1) | Classification ([2]; PDZ MUPP-1, PDZ Domain 5) | Classification ([2]; PDZ MUPP-1, PDZ Domain 10) | Classification ([3]; PDZ KIAA1634, PDZ Domain 1) | Classification ([3]; PDZ KIAA1634, PDZ Domain 5) | Classification [1, 4] | Classification ([2]; PDZ MUPP-1, PDZ Domain 13) | Classification ([3]; PDZ KIAA1634, PDZ Domain 2) | further results
1 | ELLQFCRTPNPALKNGQYWV (Biotin-ELLQFCRTPNPALKNGQYWV) | 1 (A450 nm 0-1) | 5 (A450 nm of 4 more than 2× repeated) | 4 (A450 nm 3-4) | 5 (A450 nm of 4 more than 2× repeated) | 2 (A450 nm 1-2) |  |  |  | Classification ([1]; PDZ KIAA807): 1 (A450 nm 0-1); Classification ([2]; PDZ MUPP-1, PDZ Domain 1): 2 (A450 nm 1-2); Classification ([2]; PDZ MUPP-1, PDZ Domain 2): 5 (A450 nm of 4 more than 2× repeated); Classification ([2]; PDZ MUPP-1, PDZ Domain 8): 2 (A450 nm 1-2); Classification ([2]; PDZ MUPP-1, PDZ Domain 11): 5 (A450 nm of 4 more than 2× repeated); Classification ([2]; PDZ MUPP-1, PDZ Domain 12): 1 (A450 nm 0-1)
2 | CSCC[C@H](NC(=O)[C@H](C)NC(=O)[C@H](CCCNC(=N)N)NC(=O)CNC(=O)[C@@H](NC(=O)[C@H](Cc1c[nH]c2ccccc12)NC(=O)[C@H](CCCNC(=N)N)NC(=O)CNC(=O)CCCC[C@@H]1SC[C@@H]2NC(=O)N[C@@H]21)[C@@H](C)O)C(=O)N[C@@H](CO)C(=O)N[C@@H](C)C(=O)N[C@@H](Cc1c[nH]c2ccccc12)C(=O)N[C@@H](CCCCN)C(=O)N1CCC[C@H]1C(=O)N[C@H](C(=O)N[C@@H](CCCNC(=N)N)C(=O)N[C@@H](CCCNC(=N)N)C(=O)N[C@@H](CCC(=O)O)C(=O)N[C@H](C(=O)N[C@@H](CCC(=O)O)C(=O)N[C@H](C(=O)O)C(C)C)[C@@H](C)O)[C@@H](C)O [HPV E6 #35 (modified)] (Biotin-GRWTGRAMSAWKPTRRETEV-OH; C-terminus assumed) |  | 2 (A450 nm 1-2) | 4 (A450 nm 3-4) | 5 (A450 nm of 4 more than 2× repeated) | 3 (A450 nm 2-3) | 5 (A450 nm of 4 more than 2× repeated) | 5 (A450 nm of 4 more than 2× repeated) | 3 (A450 nm 2-3) | Classification ([1]; PDZ KIAA0807(S), PDZ Domain 1, Protein Optimal Conc 0.5): 5 (A450 nm of 4 more than 2× repeated); Classification ([3]; PDZ KIAA1634, PDZ Domain 4): 2 (A450 nm 1-2)
3 | VHDAESSDEDGYDWGPATDL (Biotin-VHDAESSDEDGYDWGPATDL) [zona occludens 3 (ZO-3)] | 5 (A450 nm of 4 more than 2× repeated) |  |  |  | 1 (A450 nm 0-1) | 5 (A450 nm of 4 more than 2× repeated) | 2 (A450 nm 1-2) |  | Classification ([2]; PDZ MUPP-1, PDZ Domain 7): 1 (A450 nm 0-1); Classification ([2]; PDZ MUPP-1, PDZ Domain 9): 1 (A450 nm 0-1)
4 | TQGFPGPATWRRISSLESEV | 5 (A450 nm of 4 more than 2× repeated) | 1 (A450 nm 0-1) | 1 (A450 nm 0-1) | 5 (A450 nm of 4 more than 2× repeated) | 1 (A450 nm 0-1) | 4 (A450 nm 3-4) | 5 (A450 nm of 4 more than 2× repeated) | 3 (A450 nm 2-3) | Classification ([3]; PDZ KIAA1634, PDZ Domain 4): 1 (A450 nm 0-1)
5 | CC[C@H](C)[C@H](NC(=O)[C@H](CO)NC(=O)[C@@H](NC(=O)[C@H](Cc1ccccc1)NC(=O)[C@H](CO)NC(=O)CCCC[C@@H]1SC[C@@H]2NC(=O)N[C@@H]21)[C@@H](C)O)C(=O)N[C@@H](CC(C)C)C(=O)N[C@H](C(=O)N[C@@H](CS)C(=O)N[C@@H](Cc1c[nH]cn1)C(=O)N[C@@H](CCC(N)=O)C(=O)N[C@@H](CCCNC(=N)N)C(=O)N[C@@H](CCCNC(=N)N)C(=O)N[C@H](C(=O)N[C@@H](CCC(N)=O)C(=O)N[C@@H](CCCNC(=N)N)C(=O)N[C@@H](CCCCN)C(=O)N[C@@H](CCC(=O)O)C(=O)N[C@H](C(=O)N[C@H](C(=O)N[C@@H](C)C(=O)O)C(C)C)[C@@H](C)O)[C@@H](C)O)[C@@H](C)O [GluR5-2 (rat)] | 1 (A450 nm 0-1) |  | 2 (A450 nm 1-2) | 5 (A450 nm of 4 more than 2× repeated) |  |  |  |  | Classification ([2]; PDZ MUPP-1, PDZ Domain 11): 1 (A450 nm 0-1)
6 | ISGTPTSTMVHGMTSSSSVV (Biotin-ISGTPTSTMVHGMTSSSSVV) [Clasp-2] |  |  | 1 (A450 nm 0-1) | 1 (A450 nm 0-1) |  | 1 (A450 nm 0-1) | 1 (A450 nm 0-1) | 1 (A450 nm 0-1) | 
7 | CC(C)C[C@H](NC(=O)[C@H](CCCNC(=N)N)NC(=O)CNC(=O)CNC(=O)[C@H](CCCNC(=N)N)NC(=O)[C@H](C)NC(=O)[C@@H]1CCCN1C(=O)[C@H](CCCNC(=N)N)NC(=O)CNC(=O)CNC(=O)[C@@H](NC(=O)[C@H](C)NC(=O)CCCC[C@@H]1SC[C@@H]2NC(=O)N[C@@H]21)C(C)C)C(=O)N[C@@H](CCC(N)=O)C(=O)NCC(=O)N[C@@H](CCCNC(=N)N)C(=O)N[C@@H](CCCNC(=N)N)C(=O)N[C@@H](CCC(N)=O)C(=O)N[C@H](C(=O)N[C@@H](CCC(N)=O)C(=O)N[C@H](C(=O)O)C(C)C)[C@@H](C)O [HPV E6 58 (modified)] (Biotin-AVGGRPARGGRLQGRRQTQV-OH; C-terminus assumed) | 5 (A450 nm of 4 more than 2× repeated) |  | 3 (A450 nm 2-3) | 5 (A450 nm of 4 more than 2× repeated) | 1 (A450 nm 0-1) |  | 1 (A450 nm 0-1) | 1 (A450 nm 0-1) | 
8 | CC[C@H](C)[C@H](NC(=O)[C@H](CCC(N)=O)NC(=O)[C@@H](NC(=O)[C@H](Cc1c[nH]cn1)NC(=O)[C@H](CCC(N)=O)NC(=O)[C@H](CC(=O)O)NC(=O)[C@H](CCC(=O)O)NC(=O)[C@H](CC(=O)O)NC(=O)[C@H](Cc1ccccc1)NC(=O)[C@@H]1CCCN1C(=O)[C@H](CCC(=O)O)NC(=O)[C@H](CC(N)=O)NC(=O)[C@H](CCC(=O)O)NC(=O)[C@@H]1CCCN1C(=O)[C@H](CC(=O)O)NC(=O)[C@H](CO)NC(=O)[C@H](CC(=O)O)NC(=O)CCCC[C@@H]1SC[C@@H]2NC(=O)N[C@@H]21)[C@@H](C)O)C(=O)N[C@H](C(=O)N[C@@H](CCCCN)C(=O)N[C@H](C(=O)O)C(C)C)[C@@H](C)O [PTEN] | 5 (A450 nm of 4 more than 2× repeated) |  |  |  |  | 5 (A450 nm of 4 more than 2× repeated) | 5 (A450 nm of 4 more than 2× repeated) | 5 (A450 nm of 4 more than 2× repeated) | 
9 | APC—adenomatous polyposis coli protein (ESSGTQSPKRHSGSYLVTSV) | 1 (A450 nm 0-1) |  | 1 (A450 nm 0-1) | 1 (A450 nm 0-1) |  |  |  | 1 (A450 nm 0-1) | Classification ([1]; PDZ KIAA807 (domain not given)): 1 (A450 nm 0-1)
